The text below walks through data of ChEMBL document CHEMBL4725419, “Complete Regression of Carcinoma via Combined C-RAF and EGFR Targeted Therapy” (2020).

Test [1] can be described thus: Antiproliferative activity against EGFR/C-RAF knockdown human PDAC003T cells harboring K-RAS G12D/TP53 Q136P mutant xenografted in mouse tumor model assessed as inhibition of cell proliferation by MTT assay in presence of erlotinib. The format is functional. A general note: A xenograft is tissue or cells of one species grown in another, often human tumour cells in immunodeficient mice.

The subject of the next test is PANC-1. The test is described as follows: Antiproliferative activity against EGFR/C-RAF knockdown human PANC-1 cells harboring K-RAS G12D/TP53 P72R/K129R mutant xenografted in mouse tumor model assessed as inhibition of cell proliferation by MTT assay in presence of erlotinib. The format is functional.
The nature of test [2]: Antiproliferative activity against EGFR/C-RAF knockdown human PDAC013T cells harboring K-RAS G12D/TP53 I254T mutant xenografted in mouse tumor model assessed as inhibition of cell proliferation by MTT assay in presence of erlotinib. The format is functional.
Test [3] in a line: Antiproliferative activity against EGFR/C-RAF knockdown human Panc4 cells harboring K-RAS G12D/TP53 P72R/R28W mutant xenografted in mouse tumor model assessed as inhibition of cell proliferation by MTT assay in presence of erlotinib. It counts as functional, Panc-4.
Test [4] can be described thus: Antiproliferative activity against EGFR/C-RAF knockdown human Panc198 cells harboring K-RAS G12D/TP53 D208V mutant xenografted in mouse tumor model assessed as inhibition of cell proliferation by MTT assay in presence of erlotinib. It counts as functional.
The nature of test [5]: Antiproliferative activity against EGFR/C-RAF knockdown human H-PDAC-M-X3 cells harboring K-RAS G12D/TP53 H179Y mutant xenografted in mouse tumor model assessed as inhibition of cell proliferation by MTT assay in presence of erlotinib. The format is functional.

Turning to `C#Cc1cccc(Nc2ncnc3cc(OCCOC)c(OCCOC)cc23)c1` [ERLOTINIB], the INH in test [1] came out at 11.7 µM; in the test with PANC-1, 6.1 µM; in test [2] it was 2.05 µM; in test [3] it was 2.82 µM; in test [4] it was 32.8 µM; in test [5] it was 24.5 µM.
